“Also recorded” adds a separate entry of the source.
Legend:
[1] = target: T1, α1D-AR (Homo sapiens, UniProt P25100); assay: Competition binding with [125I]HEAT at α1D-AR
T1 construct: expressed in transfected cells; host or cells: Rat-1 fibroblast cells
T1 sequence (P25100 1-572): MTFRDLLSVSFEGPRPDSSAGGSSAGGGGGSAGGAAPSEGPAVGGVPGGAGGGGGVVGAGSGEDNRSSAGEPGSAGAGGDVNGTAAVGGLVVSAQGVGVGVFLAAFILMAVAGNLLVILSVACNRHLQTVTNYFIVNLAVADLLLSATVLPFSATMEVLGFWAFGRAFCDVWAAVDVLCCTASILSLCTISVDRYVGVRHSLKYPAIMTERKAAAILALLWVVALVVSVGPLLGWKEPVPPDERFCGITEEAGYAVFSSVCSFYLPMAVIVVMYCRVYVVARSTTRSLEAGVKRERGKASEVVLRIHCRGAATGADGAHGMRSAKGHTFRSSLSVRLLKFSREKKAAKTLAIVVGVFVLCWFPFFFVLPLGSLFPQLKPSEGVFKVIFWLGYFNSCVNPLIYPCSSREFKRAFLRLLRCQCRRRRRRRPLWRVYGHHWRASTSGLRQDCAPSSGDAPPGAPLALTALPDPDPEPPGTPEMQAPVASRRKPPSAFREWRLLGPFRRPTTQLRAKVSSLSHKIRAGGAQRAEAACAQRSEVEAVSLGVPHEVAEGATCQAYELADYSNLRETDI
Description: Competition binding assays: These compounds were characterized for their ligand binding properties at the α1-AR subtypes. The binding affinities of Compounds 1-10 were determined in a series of competition-binding experiments with the α1-AR-selective antagonist [^125I]HEAT as the radioligand. Assays were performed in duplicate in HEM buffer, in a total assay volume of 1000 μl. Radioligand binding assays are composed of 5 ug of membranes, harvested from Rat-1 fibroblast cells expressing only one of the alpha1-AR subtypes, HEM buffer containing GTP (composed of 20 mM HEPES, pH 7.4, 1.4 mM EGTA, 12.5 mM MgCl2, pH to 7.4), 0.5 mM GTP, 35-80 pM^125I-HEAT, and various doses of norepinephrine or epinephrine and incubated with shaking at 25° C. for 1-2 hours. The above conditions will convert all the conformations of the receptor into a single low affinity site. To show both high and low affinity sites of the receptor (typically seen with GPCR agonists), the GTP is removed from the binding buffer. Nonspecific binding was determined experimentally in the presence of 10^−4 M phentolamine. Unbound radioactivity was separated from membrane-bound radioactivity by filtration through Whatman GF/C filter paper. […] Bound radioactivity remaining on the filters was counted on an ICN gamma counter operating at 79.8% efficiency. Data are analyzed using Graphpad Prism.

[2] = target: T2, α1B-AR (Homo sapiens, UniProt P35368); assay: cAMP assay at α1B-AR; type: cell-based
T2 construct: expressed in transfected cells; host or cells: Rat-1 fibroblast cells
T2 sequence (P35368 1-520): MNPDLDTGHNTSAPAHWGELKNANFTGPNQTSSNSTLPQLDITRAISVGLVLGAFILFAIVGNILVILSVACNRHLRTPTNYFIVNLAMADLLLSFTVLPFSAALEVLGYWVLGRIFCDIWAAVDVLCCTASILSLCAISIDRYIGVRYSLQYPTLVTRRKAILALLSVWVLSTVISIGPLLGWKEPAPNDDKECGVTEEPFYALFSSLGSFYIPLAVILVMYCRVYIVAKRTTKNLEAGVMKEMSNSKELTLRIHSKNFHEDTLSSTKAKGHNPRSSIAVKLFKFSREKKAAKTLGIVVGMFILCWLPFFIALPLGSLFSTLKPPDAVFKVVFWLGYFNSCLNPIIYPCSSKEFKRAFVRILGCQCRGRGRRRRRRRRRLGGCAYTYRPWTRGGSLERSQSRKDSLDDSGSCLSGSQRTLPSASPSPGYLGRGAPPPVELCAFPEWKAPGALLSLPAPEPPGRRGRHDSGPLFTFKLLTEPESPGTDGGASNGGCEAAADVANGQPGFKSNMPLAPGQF
Description: cAMP assay: Cells expressing a single α1-adrenergic receptor subtype are washed and re-plated into 24-well plates in DMEM media without serum at approximately 2.4×10^4 cells/well. Cells are allowed to rest till the next day in a CO2 incubator at 37° C. The cells are washed twice with DMEM (no serum), then 1 ml of DMEM is added to each well. Cells are pre-incubated for 45 mins-1 hour at 37° C. in a CO2 incubator with 10 uM propranolol, followed by 100 uM IBMX for 30 minutes. Final DMSO concentration is at 0.05%. Norepinephrine or epinephrine is added in a dose response (1 dose per well) in addition to one of the Compounds 1-10 at one concentration (i.e. 10^−5M). Cells are incubated for another 30 mins at 37° C. in a CO2 incubator. The reaction is concluded by aspirating the media and adding 0.1M HCL. The mixture is incubated for 20 mins at room temperature. The cells are scraped and suspended until homogenous. The mixture is centrifuged at 1000 g for 10 mins and the supernatant assayed the same day according to a manufacturer's cAMP kit (Cayman Select Cyclic AMP EIA kit #501040).

[3] = target: T3, α1A-AR (Homo sapiens, UniProt P35348); assay: Effect of compound on binding affinity of norepinephrine, epinephrine or other ligands at α1A-AR; design: expressed in transfected cells; host or cells: Rat-1 fibroblast cells
T3 sequence (P35348 1-466): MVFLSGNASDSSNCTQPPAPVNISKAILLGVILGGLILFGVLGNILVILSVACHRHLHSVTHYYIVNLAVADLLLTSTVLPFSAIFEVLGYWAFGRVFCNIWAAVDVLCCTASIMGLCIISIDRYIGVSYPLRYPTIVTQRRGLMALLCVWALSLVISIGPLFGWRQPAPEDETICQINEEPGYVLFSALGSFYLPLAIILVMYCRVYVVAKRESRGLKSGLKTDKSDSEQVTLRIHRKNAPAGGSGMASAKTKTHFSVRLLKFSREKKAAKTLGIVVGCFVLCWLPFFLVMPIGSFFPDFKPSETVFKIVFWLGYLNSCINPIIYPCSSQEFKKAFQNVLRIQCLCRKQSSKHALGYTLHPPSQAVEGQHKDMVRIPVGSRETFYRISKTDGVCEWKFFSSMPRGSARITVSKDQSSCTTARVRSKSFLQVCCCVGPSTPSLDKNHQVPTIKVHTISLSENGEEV
Description: Competition binding assays: These compounds were characterized for their ligand binding properties at the α1-AR subtypes. The binding affinities of Compounds 1-10 were determined in a series of competition-binding experiments with the α1-AR-selective antagonist [^125I]HEAT as the radioligand. Assays were performed in duplicate in HEM buffer, in a total assay volume of 1000 μl. Radioligand binding assays are composed of 5 ug of membranes, harvested from Rat-1 fibroblast cells expressing only one of the alpha1-AR subtypes, HEM buffer containing GTP (composed of 20 mM HEPES, pH 7.4, 1.4 mM EGTA, 12.5 mM MgCl2, pH to 7.4), 0.5 mM GTP, 35-80 pM^125I-HEAT, and various doses of norepinephrine or epinephrine and incubated with shaking at 25° C. for 1-2 hours. The above conditions will convert all the conformations of the receptor into a single low affinity site. To show both high and low affinity sites of the receptor (typically seen with GPCR agonists), the GTP is removed from the binding buffer. Nonspecific binding was determined experimentally in the presence of 10^−4 M phentolamine. Unbound radioactivity was separated from membrane-bound radioactivity by filtration through Whatman GF/C filter paper. Filters are washed five times with 5 ml of cold HEM buffer containing 0.5 mMGTP (if added to the binding buffer but not if it was not added to the binding buffer). Bound radioactivity remaining on the filters was counted on an ICN gamma counter operating at 79.8% efficiency. Data are analyzed using Graphpad Prism.
To determine the effects of compounds 1-10 on the binding affinity of norepinephrine or epinephrine, the competition binding assay was repeated as above with one dose of each individual compound (i.e. 10^−5M) added to each concentration point. Data are normalized to the norepinephrine or epinephrine binding curve alone without the addition of the compound to measure its effect on binding.

Question: `CC(C)Cc1c(OCC2=NCCN2)cccc1N(C)S(C)(=O)=O` [Compound 3, N-[3-(4,5-Dihydro-1H-imidazol-2-ylmethoxy)-2-isobutyl-phenyl]-N-methyl-methanesulfonamide] was tested. Which “specific binding at the α1D-AR” value [1] did it give?
Answer: little, if any, specific binding; also recorded: no affinity

Question: And the “effect on norepinephrine cAMP response at the α1B-AR” value [2]?
Answer: no effect

Question: And the “effect on binding affinity of epinephrine at the α1A-AR” value ([3]; 10^−5M (highest dose tested))?
Answer: no effect

Question: And the “effect on binding affinity of norepinephrine at the α1A-AR” value ([3]; fixed dose of compound, 10^−5M to 10^−9M)?
Answer: increasing the affinity of norepinephrine in a dose-specific manner
